According to patent US20260242428A1, “POLYETHYLENIMINE-MODIFIED CRY PROTEINS AND THEIR USE” (priority 2024, published 2026):

Columns and labels:
[1] = tested on: 3A-FDH/3A-LDH particles, unmodified (co-immobilized Cry3Aa-formate dehydrogenase and Cry3Aa-leucine dehydrogenase); assay: NADH binding capacity of 3A-FDH/3A-LDH particles without PEI; details: absorbance at 340 nm
[2] = target: T1, PEI-modified Cry3Aa (3A-PEI) crystals; Cry3Aa, SEQ ID NO: 4 (Bacillus thuringiensis subsp. tenebrionis, UniProt P0A379, F640R/R158P); assay: Cofactor binding capacity of 3A-PEI crystals; details: 0.25 mM cofactor, 20 μg crystals, 10° C., 30 min
T1 construct: made in house; host or cells: Bacillus thuringiensis B7407G
Experimental: To compare the binding capacity of 3A-PEI crystals with Cry3Aa and Pos3Aa crystals, the same experiment was conducted as the control.
To evaluate whether 3A-PEI crystals could binding to other phosphorylated cofactors, PLP, NAD^+, NADP^+, NADPH, FADH2, CoA, Riboflavin, and TPP (each at a concentration of 0.25 mM) were incubated with 20 μg of 3A-PEI crystals for 30 min under slow rotation at 10° C. Subsequently, the crystals were centrifugated and the amount of bound cofactor within the crystals was quantified.

[3] = target: T2, PEI-modified CadA-Cry1Ab fusion particles (E. coli lysine decarboxylase CadA, NP_418555, fused to Cry1Ab) (Escherichia coli, UniProt P0A9H3); assay: PLP binding capacity of PEI-CadA-Cry1Ab particles
T2 construct: made in house; host or cells: E. coli BL21(DE3)
Experimental: For binding analysis, PEI-CadA-Cry1Ab fusion particles (50 μg/mL) were incubated with increasing concentrations of PLP (0-2 mM) for 25 min under gentle rotation at room temperature. After incubation, the particles were centrifuged at 8000 rpm for 10 min, and the unbound PLP in the supernatant was quantified. A calibration curve, generated from PLP standards treated under identical conditions, was used to determine the amount of PLP bound to the particles. To stabilize the absorbance peak of PLP following Schiff base formation with the protein, 1 M HCl was added to the unbound PLP supernatants in a 1:1 (v/v) ratio. After a 5-minute incubation, the absorbance of the unbound PLP was measured at 294 nm using an Eppendorf Bio-Spectrometer (Eppendorf AG. Germany). The PLP concentration was determined using a standard curve generated for various PLP amounts treated with 1M HCL based on the Beer-Lambert law.

[4] = target: T3, CadA-Cry1Ab fusion particles, unmodified (E. coli lysine decarboxylase CadA, NP_418555, fused to Cry1Ab) (Escherichia coli, UniProt P0A9H3); assay: PLP binding capacity of unmodified CadA-Cry1Ab particles; details: before PEI modification
T3 construct: made in house; host or cells: E. coli BL21(DE3)

Compound	NADH retained [1]	binding affinity (binding capacity of cofactor) [2]	PLP binding capacity ([3]; PLP 0-2 mM, 25 min, room temperature)	PLP binding capacity enhancement by PEI modification ([3]; vs unmodified CadA-Cry1Ab) [fold]	PLP binding capacity [4]
NC(=O)C1=CN([C@@H]2O[C@H](COP(=O)(O)OP(=O)(O)OC[C@H]3O[C@@H](n4cnc5c(N)ncnc54)[C@H](O)[C@@H]3O)[C@@H](O)[C@H]2O)C=CC1 [NADH, nicotinamide adenine dinucleotide]	~ 4.2±0.3 μmol NADH per g				
Cc1ncc(COP(=O)(O)O)c(C=O)c1O [PLP, Pyridoxal 5′-phosphate]		650±2 μmol/g of support	~ 1300 μmol/g	13	~ 100 μmol/g
Cc1ncc(C[n+]2csc(CCOP(=O)(O)OP(=O)(O)O)c2C)c(N)n1 [TPP]		160±1 μmol/g of support			
